Data from US4639468A, “Derivatives of glycinamide, their preparation and their use” (priority 1979, dated 1987).
Read-outs that look alike come from different tables or passages of the source.

Legend:
[1] = test system: mouse; experiment: passive prevention (memory) in mouse; format: in vivo; conditions: 50 mgr/kg intraperitoneally
From the text: This product and very likely other compounds of the invention thus improve mnesic retention.

[2] = in vivo; conditions: mouse, in vivo, po, read-out: DL50 (the source's name)
[3] = test system: platelet agglutination; experiment: inhibition of platelet agglutination in human plasma (turbidimetric method of Born and Cross, Trombofax); format: cell-based; conditions: human plasma rich in platelets, preincubated 3 minutes before Trombofax
Protocol: The measure of the inhibition of platelet agglutination is made according to the turbidimetric method of G. V. R. Born and M. J. Cross (J. Physiol. 168, 178, […]). The plasma rich in platelets is preincubated for 3 minutes before introduction of the inductor agent, Trombofax. The inhibion of the maximum amplitude of agglutination is measured by means of Upchurch agglutometer. In this test, compounds 1, 11, 14 and 18 have shown as being active.

[4] = test system: convulsions induced by bicuculline; experiment: in vivo; conditions: for bicuculline (score: sum of animals protected by dosages of 10 and 100 mgr/kg): oral, 5 mice each, 3 hours before bicuculline 0.6 mgr/kg i.v., tonic convulsions; for ED50: Mus musculus; for DL50/DE50 (therapeutical index): Table III
Protocol: The anticonvulsive effect was examined for tonic convulsions induced by bicuculline. The compounds of the invention were administrated orally at dosages of 10 and 100 mgr/kg, each to 5 mice, 3 hours before intravenous injection of bicuculline at the dosage of 0.6 mgr/kg. The number of mice protected against tonic convulsions and the number of dead mice were noted.
Amongst the substances according to the invention, 2-n-pentylaminoacetamideand its hydrochloride were more particularly studied. […] The hydrochloride was also administered intravenously. […] Table III also gives the therapeutical index (LD50/ED50).

[5] = test system: convulsions induced by strychnine; experiment: convulsions induced by strychnine; conditions: in vivo
[6] = test system: mice; experiment: in vivo; conditions: oral, mice; Table II
[7] = test system: convulsions due to leptazol; experiment: convulsions due to leptazol in mouse; format: in vivo
[8] = test system: central serotoninergic system; experiment: potentiation of the effects of 1-trypthophan in mouse; format: in vivo
[9] = test system: decarboxylase glutamate (GAD); experiment: activity of decarboxylase glutamate (GAD) in homogenizates of rat brain; format: biochemical; conditions: 10^-4 M
Protocol: The substances of the invention have the property of inhibiting convulsions induced by bicculline in mouse. […] As a matter of fact, bucuculline is a specific antoganist of GABA. Besides, the effect of the products on the activity of the GABA synthesis enzyme, decarboxylase glutamate (GAD), was studied. The activity of the GAD was determined in homogenizates of rat brain according to the method described by L. Parker (Methods in Enzymology, Ed. S. Fleischer, 1974, Vol. XXXII, part V., p. 779). […] In general, the products of the invention […] the activity of the […] (GABA-T), enzyme of GABA catabolism, which results in an increase of the GABA levels at the level of GABA-ergic neurons.

[10] = test system: GABA-T; experiment: GABA-T activity after oral administration in rat; format: in vivo; conditions: 200 mgr/kg per os
[11] = test system: GAD; experiment: GAD activity after oral administration in rat; format: in vivo; conditions: 200 mgr/kg per os
[12] = test system: convulsions due to picrotoxine; experiment: convulsions due to picrotoxine; conditions: in vivo
From the text: (3) 2-n-pentylaminoacetamide hydrochloride has no effect on the convulsions due to picrotoxine.

[13] = test system: accumulation of lactate in the brain; experiment: cerebral anoxia caused by decapitation of rat: lactate in the brain; format: in vivo; conditions: first seconds of anoxia caused by decapitation
From the text: This activity very likely explains itself by an effect on the cerebral energetic metabolism during anoxia. This effect on the cerebral energetic metabolism has been confirmed for 2-n-pentylaminoacetamide hydrochloride in a series of experiments on cerebral anoxia caused by decapitation of rat.

[14] = test system: GABA rate of the black substance; experiment: GABA rate of the black substance after oral administration in rat; format: in vivo; conditions: 200 mgr/kg per os, 4 hours after treatment

## CCCCCCCCNCC(N)=O [Compound 1, 2-n-octylaminoacetamide]
[1]
  behaviour extinction in passive prevention: delayed the behaviour extinction
[2]; mice, Table II
  LD50: 2220 mg/kg
[3]
  inhibition of platelet agglutination: active
[4]
  bicuculline (score: sum of animals protected by dosages of 10 and 100 mgr/kg): 4

## CCCCCNCC(N)=O [Compound 3, 2-n-pentylaminoacetamide]
[5]
  activity against convulsions induced by strychnine: inactive
[6]
  DL50: 1925 mg/kg
[7]
  inhibition of convulsions due to leptazol: only slightly inhibits
[4]; iv, 3 h, read-out: DE50
  ED50: 11.2 mg/kg
[4]; po
  ED50: 11.2 mg/kg
[4]; increased bicuculline doses
  antagonist action against convulsions due to bicuculline on increase of the bicuculline doses: may be overcome by an increase of the bicuculline doses
[4]; mouse, in vivo
  competition with bicuculline: competes with bicuculline
[4]; mouse
  DL50/DE50 (therapeutical index): 172
[4]
  bicuculline (score: sum of animals protected by dosages of 10 and 100 mgr/kg): 7
[8]
  effect on the effects of 1-trypthophan: potentiates the effects of 1-trypthophan
[9]
  effect on the activity of GAD: particularly remarkable

## CCCCCNCC(N)=O.Cl [Compound 33, 2-n-pentylaminoacetamide hydrochloride]
[10]
  effect on GABA-T: without modifying
[2]; mice, Table II
  LD50: 2880 mg/kg
[2]; Table III
  LD50: 2240 mg/kg
[11]
  potentiation of the GAD activity: 26%
[4]; iv
  ED50: 2.19 mg/kg
[4]; iv, 3 h, read-out: DE50
  ED50: 5.74 mg/kg
[4]; po
  ED50: 5.74 mg/kg
[4]; mouse, in vivo
  absorption from the intestinal tractus: excellent absorption from the intestinal tractus
[4]; mouse
  DL50/DE50 (therapeutical index): 390
[4]
  bicuculline (score: sum of animals protected by dosages of 10 and 100 mgr/kg): 6
[12]
  effect on the convulsions due to picrotoxine: no effect
[13]
  accumulation of lactate in the brain: prevents accumulation of lactate in the brain
[14]
  increase of GABA rate of the black substance: 38%
[9]
  effect on the activity of GAD: particularly remarkable
